# Laboratory results as given in patent US8410152B2 (Max-Planck-Gesellschaft zur Forderung der Wissenschaften e. …, priority 2006, dated 2013).
# Where two headings read alike, the source gives them in different places.
# Columns and labels:
# [1] = biological target: tau construct K19 (Homo sapiens, UniProt P10636); assay: Thioflavine S (ThS) assay for aggregation of tau; assay type: biochemical
# Procedure: Thioflavine S (ThS) Assay for aggregation of tau: 10 μM of the tau construct K19 were incubated with compounds in a concentration range from 1 nM up to 200 μM in the presence of 2.5 μM heparin in 50 mM NH4Ac buffer over night at 37° C. After addition of 20 μM ThS the signal was measured at 521 nm (emission) at an excitation wavelength of 440 nm. The results of this assay are presented in the IC50 column and DC50 column of Table 1 below.
# [2] = system: uninduced N2A cells; assay type: cell-based; conditions: cell death as percent of LDH released into medium vs total LDH, compound 10 μM
# Procedure: Neurotoxicity assay: Neurotoxicity was assessed using an LDH (lactate dehydrogenase) assay kit (Roche, Mannheim, Germany) according to the manufacturer's specifications. In the viability assay the aggregation inhibitor compound was added at a final concentration of 10 μM to uninduced N2A cells. The activity of LDH was measured spectrophotometrically at 492 nm. Cell death was calculated as percent of LDH released into medium, compared to total LDH obtained after total cell lysis.
# [3] = system: N2a/K18ΔK280 cells; assay: Tau aggregation and inhibition assay in cells (ThS staining); assay type: cell-based; conditions: for Inhibition in cells (result in words: cytotoxicity): compound 10 μM; for inhibition at 10 µM: 120 h, read-out: Inhibition in cells
# Procedure: Selection of an N2a, Tet-On, G418-resistant cell line: N2a cells were cotransfected with both the pUHD172-1 plasmid (encoding the rtTA, obtained from H. Bujard, Heidelberg) and pEU-1 plasmid (encoding G418 resistance, a derivative of pRc/CMV, Invitrogen) (ratio 20:1; 1 μg/well of 6-well plates) using the DOTAP transfection reagent (Roche, Basel, CH). The cells were cultured in Eagle's Minimum Essential Medium (MEM) supplemented with 10% defined fetal bovine serum and subjected to G418 (600 μg/ml) and selection. The cells were fed with fresh media every 4 days for 3-4 weeks when single colonies appeared. Clones were tested for the induction level by transient transfection of pUHG 16-3 plasmid and the induction of β-galactosidase was measured.
# Generation of inducible Tet-On cell lines: The DNA fragments encoding the appropriate tau constructs (K18WT, K18ΔK280, K18/ΔK280/PP) were inserted into the bidirectional vector pBI-5 between ClaI and SalI restriction sites (pBI-5 is an unpublished derivative of pBI-2, Baron et al., 1995). The pBI-5/K18-derived plasmids with pX343 (plasmid encoding the hygromycin resistance) were used for cotransfection of N2a/Tet-On, G418-resistant cells with the aid of DOTAP (20:1 plasmid ratio; 1 μg/well of 6-well plates). The cells were seeded at 4×10^5 cells per well. On the following day cells were transferred to 100-mm dishes and selected with 100 μg/ml of hygromycin and 600 μg/ml of G418. Clonal cell lines were screened for the inducible expression of K18 derivatives by measuring luciferase activity with the luciferase assay and immunofluorescence for tau protein with the polyclonal pan-tau antibody K9JA.
# Induction of K18-derivatives in Tet-On N2a cells: The inducible N2a/K18-derivatives cells were cultured in MEM medium supplemented with 10% fetal calf serum, 2 mM glutamine and 0.1% nonessential amino acids. The expression of K18 constructs was induced by adding 1 μg doxycyclin (Dox) per 1 ml medium. The induction was continued for 7-11 days, the medium was changed 3 times (always complemented with doxycyclin). For tau solubility assays the cells were collected by pelleting during centrifugation at 1000×g for 5 min. The levels and solubility of tau K18/ΔK280 were determined following Greenberg and Davies (1990). The cells were homogenized (DIAX900, Heidolph, Schwabach, Germany) in 10 vol (w/v) of buffer consisting of 10 mM Tris-HCl (pH 7.4), 0.8 M NaCl, 1 mM EGTA, and 10% sucrose. The homogenate was spun for 20 min at 20000×g, and the supernatant was retained. The pellet was re-homogenized in 5 vol of homogenization buffer and re-centrifuged. Both supernatants were combined, brought to 1% N-laurylsarkosinate (w/v) and incubated for 1 hr at room temperature while shaking, followed by centrifugation at 100 000×g for 1 hr. The sarkosyl-insoluble pellets were resuspended in 50 mM Tris-HCl (pH 7.4), 0.5 ml per 1 g of starting material. The supernatant and sarkosyl-insoluble pellet samples were analyzed by Western blotting. The amount of material loaded for supernatant and sarkosyl-insoluble pellet represented about 0.5% and 15% of the total material present in the supernatant and pellet respectively (the ratio between supernatant and sarkosyl insoluble pellet was always 1:30). For quantification of tau levels in each fraction, the Western blots were probed with pan-tau antibody K9JA and analyzed by densitometry (LAS 3000 and AIDA software, Raytest, Straubenhardt, Germany).
# Quantitation of tau aggregation in cells by Thioflavin S (ThS) staining: Tet-On inducible undifferentiated N2a cells were treated with 1 μg/ml doxycyclin for 5, 7 or 9 days in a culture dish. After that the cells were trypsinized and transferred to coverslips and incubated overnight. The cells on the coverslips were fixed with 4% paraformaldehyde in PBS for 15 min, then permeabilized with 80% MeOH for 6 min at −20° C., and incubated with 0.1% Thioflavin S for 5 min and washed three times in ethanol (50%). […]
# [4] = biological target: tau construct K18 (Homo sapiens, UniProt P10636); assay: STD-NMR determination of dissociation constant; assay type: binding; conditions: STD-NMR titration data for proton I, 10 μM soluble K18, PBS/D2O, 295 K; read-out: KD of K18-BSc3094 complex
# tau construct K18, sequence (P10636 with tags, fused parts or gaps isoform P10636-8 limits assumed): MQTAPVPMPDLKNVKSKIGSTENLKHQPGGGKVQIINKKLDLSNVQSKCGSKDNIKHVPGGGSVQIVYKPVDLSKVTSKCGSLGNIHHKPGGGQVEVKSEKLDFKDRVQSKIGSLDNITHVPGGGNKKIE
# Procedure: STD-NMR: All STD NMR experiments were made in 3 mm Match® tubes in a 700 MHz spectrometer with cryogenic probe head at 295 K. The quantity of protein was kept small by the small diameter of the sample tubes. The spectra were measured with a spectral width of 11.0208 ppm and 32k data points with application of the WATERGATE water suppression (w5-sequence). The suppression of the protein resonances was reached by a spin lock pulse with a length of 15 ms and a attenuation of 11 dB. We used a pulse program in which the presaturation was accomplished alternating after each scan for the on and off resonance experiment at the selected frequencies. Thus artefacts are prevented during the difference formation due to in homogeneities. As point of irradiation for the on resonance experiments we selected 540 Hz (0.77 ppm). As point of irradiating for the off resonance experiments 40,000 Hz (57.1 ppm) was selected. The saturation duration in all experiments was 4 seconds, the attenuation of the saturation power 45 dB. 2044 scans were collected per experiment. After phase correction the FID was multiplied by an exponential function to improve the signal to noise ratio, which caused a line broadening of 1 Hz.
# For the determination of the dissociation constant a sample with 10 μM soluble K18 and 80 μM DTT-d6 in 200 μL PBS/D2O was prepared. […]
# [5] = 10 μM tau construct K19, 2.5 μM heparin, ThS fluorescence, read-out: DC50
# [6] = 10 μM tau construct K19, 2.5 μM heparin, over night at 37° C., ThS fluorescence, read-out: ID50 (the source's name)
# [7] = N2a/K18ΔK280 cells, compound 10 μM with doxycyclin, 5 days, ThS-positive cells scored
# [8] = 10 μM tau construct K19, 2.5 μM heparin, ThS fluorescence
# tau construct K19, sequence (P10636 with tags, fused parts or gaps isoform P10636-2 limits assumed): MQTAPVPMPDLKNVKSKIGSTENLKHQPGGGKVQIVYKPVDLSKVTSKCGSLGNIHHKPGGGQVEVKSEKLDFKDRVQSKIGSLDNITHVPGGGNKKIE
compound,measurement,setting,value
"N#Cc1ccc(-c2csc(NNC(=O)c3cccc(F)c3)n2)cc1 [Comp. 67, N′-[4-(4-cyanophenyl)-1,3-thiazol-2-yl]-3-fluorobenzohydrazide]",DC50,[1]; [5],28.7 µM
same,IC50,[1]; [6],19.7 µM
same,LDH,[2],19.8%
same,Inhibition in cells (result in words: cytotoxicity),"[3]; N2a/K18ΔK280 cells, 5 days",Cytotoxic at 5 d
"O=C(NNc1nc2c(s1)Cc1ccccc1-2)c1ccc(C(F)(F)F)cc1 [Comp. 66, N′-8H-indeno[1,2-d][1,3]thiazol-2-yl-4-(trifluoromethyl)benzohydrazide]",DC50,[1]; [5],2.7 µM
same,IC50,[1]; [6],4.1 µM
same,LDH,[2],−4.6%
same,inhibition at 10 µM,[3]; [7],53.9%
"Cc1nc(NNC(=O)c2ccc3[nH]cnc3c2)sc1-c1ccc(Br)cc1 [Comp. 62, N′-[5-(4-bromophenyl)-4-methyl-1,3-thiazol-2-yl]-1H-benzimidazole-5-carbohydrazide]",DC50,[1]; [5],38.1 µM
same,IC50,[1]; [6],33.5 µM
same,LDH,[2],−2.8%
same,inhibition at 10 µM,[3],68.3%
"COc1ccc(-c2csc(NNC(=O)N3CCCCC3)n2)cc1 [Comp. 49, N′-[4-(4-methoxyphenyl)-1,3-thiazol-2-yl]piperidine-1-carbohydrazide]",DC50,[1]; [5],> 200 µM
same,IC50,[1]; [6],> 200 µM
same,LDH,[2],−3.9%
same,Inhibition in cells (result in words: cytotoxicity),"[3]; N2a/K18ΔK280 cells, 5 days",Cytotoxic at 5 d
"Cc1sc(NNC(=O)c2ccc(-c3ccccc3)cc2)nc1-c1ccc([N+](=O)[O-])cc1 [Comp. 61, N′-[5-methyl-4-(4-nitrophenyl)-1,3-thiazol-2-yl]-1,1′-biphenyl-4-carbohydrazide]",DC50,[1]; [5],13.6 µM
same,IC50,[1]; [6],9.8 µM
same,LDH,[2],16.6%
same,inhibition at 10 µM,[3]; [7],62.6%
"O=C(NNc1nc(-c2ccc(Cl)cc2)cs1)C1CCCCC1 [Comp. 68, N′-[4-(4-chlorophenyl)-1,3-thiazol-2-yl]cyclohexanecarbohydrazide]",DC50,[1]; [5],162 µM
same,IC50,[1]; [6],69.1 µM
same,LDH,[2],−2.8%
same,inhibition at 10 µM,[3]; [7],46.4%
"O=C(NNc1nc(-c2ccc(N3CCCC3)cc2)cs1)c1cccnc1 [Comp. 10, N′-[4-(4-pyrrolidin-1-ylphenyl)-1,3-thiazol-2-yl]nicotinohydrazide]",DC50,[1]; [5],1.4 µM
same,IC50,[1]; [6],2 µM
same,LDH,[2],12.5%
same,inhibition at 10 µM,[3]; [7],62.5%
"N#Cc1ccc(-c2csc(NNC(=O)c3cc4ccccc4[nH]3)n2)cc1 [Comp. 57, N′-[4-(4-cyanophenyl)-1,3-thiazol-2-yl]-1H-indole-2-carbohydrazide]",IC50,[1],> 200 µM
same,DC50,[1]; [8],> 200 µM
same,LDH,[2],2.7%
same,inhibition at 10 µM,[3],49.3%
"O=C(NNc1nc(C2C3CC4CC(C3)CC2C4)cs1)c1cc2ccccc2[nH]1 (centres unmarked) [Comp. 54, N′-[4-(2-adamantyl)-1,3-thiazol-2-yl]-1H-indole-2-carbohydrazide]",IC50,[1],> 200 µM
same,DC50,[1]; [8],> 200 µM
same,LDH,[2],−2.1%
same,inhibition at 10 µM,[3],56.6%
"O=C(NNc1nc(-c2ccc([N+](=O)[O-])cc2)cs1)c1ccc(-c2ccccc2)cc1 [Comp. 7, N′-[4-(4-nitrophenyl)-1,3-thiazol-2-yl]-1,1′-biphenyl-4-carbohydrazide]",DC50,[1]; [5],1.2 µM
same,IC50,[1]; [6],1.3 µM
same,LDH,[2],5.0%
same,inhibition at 10 µM,[3]; [7],69.7%
"O=C(NNc1nc(-c2ccc([N+](=O)[O-])cc2)cs1)c1ccc2[nH]cnc2c1 [Comp. 8, N′-[4-(4-Nitrophenyl)-1,3-thiazol-2-yl]-1H-benzimidazole-5-carbohydrazide]",DC50,[1]; [5],0.7 µM
same,IC50,[1]; [6],1.6 µM
same,LDH,[2],5.2%
same,inhibition at 10 µM,[3]; [7],82.2%
same,Kd,[4],62 ± 12 µM
"COc1cc(-c2csc(NNC(=O)c3ccc(C(F)(F)F)cc3)n2)cc(OC)c1O [Comp. 51, N′-[4-(4-hydroxy-3,5-dimethoxyphenyl)-1,3-thiazol-2-yl]-4-(trifluoromethyl)benzohydrazide]",DC50,[1]; [5],> 200 µM
same,IC50,[1]; [6],189 µM
same,LDH,[2],−10.4%
same,inhibition at 10 µM,[3]; [7],42.6%
"O=C(NNc1nc(-c2ccc(-c3ccccc3)cc2)cs1)c1cc2ccccc2[nH]1 [Comp. 58, N′-[4-(1,1′-biphenyl-4-yl)-1,3-thiazol-2-yl]-1H-indole-2-carbohydrazide]",IC50,[1],98.9 µM
same,DC50,[1]; [8],> 200 µM
same,LDH,[2],54.5%
same,Inhibition in cells (result in words: cytotoxicity),"[3]; N2a/K18ΔK280 cells, 5 days",Cytotoxic at 5 d
"CC(C)COc1ccc(-c2csc(NNC(=O)c3cc4ccccc4[nH]3)n2)cc1 [Comp. 56, N′-[4-(4-isobutyloxyphenyl)-1,3-thiazol-2-yl]-1H-indole-2-carbohydrazide]",IC50,[1],111 µM
same,DC50,[1]; [8],> 200 µM
same,LDH,[2],−0.6%
same,inhibition at 10 µM,[3],50.8%
"O=C(NNc1nc(-c2ccccc2Br)cs1)c1cc2ccccc2[nH]1 [Comp. 60, N′-[4-(2-bromophenyl)-1,3-thiazol-2-yl]-1H-indole-2-carbohydrazide]",IC50,[1],> 200 µM
same,DC50,[1]; [8],> 200 µM
same,LDH,[2],0.1%
same,inhibition at 10 µM,[3],41.5%
"O=C(NNc1nc(-c2ccc(N3CCCC3)cc2)cs1)c1ccc(-c2ccccc2)cc1 [Comp. 9, N′-[4-(4-pyrrolidin-1-ylphenyl)-1,3-thiazol-2-yl]-1,1′-biphenyl-4-carbohydrazide]",DC50,[1]; [5],1 µM
same,IC50,[1]; [6],1.9 µM
same,LDH,[2],6.2%
same,inhibition at 10 µM,[3]; [7],60.5%
